Data from ChEMBL document CHEMBL5321275, “Discovery, Optimization, and Evaluation of Novel N-(Benzimidazol-5-yl)-1,3,4-thiadiazol-2-amine Analogues as Potent STAT3 Inhibitors for Cancer Treatment” (J Med Chem, 2023).
Activity calls are given as the source filed them. The calls are words filed in the database; no cut-off is given here.

Key:
MDA-MB-231 [1] = assay: Induction of apoptosis in human MDA-MB-231 cells assessed as early apoptotic cells at 5 uM measured after 48 hrs by annexin V-FITC and PI staining based flow cytometry analysis (reference value: 6.7%); format: functional
DU-145 [2] = assay: Induction of apoptosis in human DU-145 cells assessed as cell apoptotic percentage at 10 uM measured after 48 hrs by annexin V-FITC and PI staining based flow cytometry analysis relative to control; format: functional
DU-145 [3] = assay: Induction of apoptosis in human DU-145 cells assessed as late apoptotic cells at 1 uM measured after 48 hrs by annexin V-FITC and PI staining based flow cytometry analysis (reference value: 2.0%); format: functional
MDA-MB-231 [4] = assay: Induction of apoptosis in human MDA-MB-231 cells assessed as early apoptotic cells at 10 uM measured after 48 hrs by annexin V-FITC and PI staining based flow cytometry analysis (reference value: 6.7%); format: functional
[5] = molecular target: T1, Signal transducer and activator of transcription 1-alpha/beta (Homo sapiens) (UniProt P42224); assay: Inhibition of STAT1 phosphorylation in human DU-145 cells at 10 uM measured after 24 hrs by Western blot analysis; format: cell-based
T1 sequence (whole entry): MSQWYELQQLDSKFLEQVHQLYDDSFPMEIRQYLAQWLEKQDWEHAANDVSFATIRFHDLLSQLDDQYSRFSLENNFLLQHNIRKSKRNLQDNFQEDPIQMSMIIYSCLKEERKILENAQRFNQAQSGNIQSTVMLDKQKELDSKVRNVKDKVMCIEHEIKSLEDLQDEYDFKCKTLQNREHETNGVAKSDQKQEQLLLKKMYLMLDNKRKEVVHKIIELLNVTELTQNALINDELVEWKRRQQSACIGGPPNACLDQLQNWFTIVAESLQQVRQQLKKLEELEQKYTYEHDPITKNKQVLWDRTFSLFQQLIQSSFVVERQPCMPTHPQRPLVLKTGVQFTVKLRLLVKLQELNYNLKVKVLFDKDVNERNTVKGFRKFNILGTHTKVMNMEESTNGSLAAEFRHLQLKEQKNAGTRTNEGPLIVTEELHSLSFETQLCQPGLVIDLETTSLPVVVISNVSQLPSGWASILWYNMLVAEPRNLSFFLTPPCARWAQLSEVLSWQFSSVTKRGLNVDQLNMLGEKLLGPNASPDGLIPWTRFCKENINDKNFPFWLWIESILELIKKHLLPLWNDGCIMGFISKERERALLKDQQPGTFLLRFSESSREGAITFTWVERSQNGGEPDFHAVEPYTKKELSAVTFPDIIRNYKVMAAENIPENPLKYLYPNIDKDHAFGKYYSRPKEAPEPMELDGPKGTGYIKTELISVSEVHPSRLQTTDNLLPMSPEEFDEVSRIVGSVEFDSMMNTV

[6] = AUC (0 to infinity) in ICR mouse at 5 mg/kg, iv measured upto 96 hrs by HPLC-MS/MS analysis; format: ADME, organism-based; design: dose 5 mg/kg, time < 96 hrs, route iv; settings: in vivo
[7] = MRT (0 to infinity) in ICR mouse at 50 mg/kg, po measured upto 96 hrs by HPLC-MS/MS analysis; format: ADME, organism-based; settings: in vivo
[8] = AUC (0 to infinity) in ICR mouse at 50 mg/kg, po measured upto 96 hrs by HPLC-MS/MS analysis; format: ADME, organism-based; design: time < 96 hrs, dose 50 mg/kg, route po; settings: in vivo
MDA-MB-231 [9] = assay: Induction of apoptosis in human MDA-MB-231 cells measured after 48 hrs by annexin V-FITC and PI staining based flow cytometry analysis; format: functional, cell-based; settings: dose <= 10.0 µM
[10] = Metabolic stability in mouse liver microsomes assessed as half life in presence of NADPH/UDPGA; format: ADME, Microsome
HCT-116 = assay: Antiproliferative activity against human HCT-116 cells assessed as inhibition of cell growth measured after 96 hrs by MTT assay; format: functional, cell-based; settings: HCT-116, 96 h
MDA-MB-231 [11] = assay: Induction of apoptosis in human MDA-MB-231 cells assessed as late apoptotic cells at 1 uM measured after 48 hrs by annexin V-FITC and PI staining based flow cytometry analysis (reference value: 3.1%); format: functional
[12] = Clearance in ICR mouse at 50 mg/kg, po measured upto 96 hrs by HPLC-MS/MS analysis; format: ADME, organism-based; settings: in vivo
DU-145 [13] = assay: Induction of apoptosis in human DU-145 cells assessed as early apoptotic cells at 5 uM measured after 48 hrs by annexin V-FITC and PI staining based flow cytometry analysis (reference value: 2.5%); format: functional
[14] = Clearance in ICR mouse at 5 mg/kg, iv measured upto 96 hrs by HPLC-MS/MS analysis; format: ADME, organism-based; settings: in vivo
[15] = Cmax in ICR mouse at 50 mg/kg, po measured upto 96 hrs by HPLC-MS/MS analysis; format: ADME, organism-based; design: time < 96 hrs, dose 50 mg/kg, route po; settings: in vivo
[16] = Tmax in ICR mouse at 50 mg/kg, po measured upto 96 hrs by HPLC-MS/MS analysis; format: ADME, organism-based; settings: in vivo
MDA-MB-231 [17] = assay: Antiproliferative activity against human MDA-MB-231 cells assessed as inhibition of cell growth measured after 96 hrs by MTT assay; format: functional, cell-based; settings: MDA-MB-231, 96 h
[18] = Half life in ICR mouse at 5 mg/kg, iv measured upto 96 hrs by HPLC-MS/MS analysis; format: ADME, organism-based; settings: in vivo
[19] = Tmax in ICR mouse at 5 mg/kg, iv measured upto 96 hrs by HPLC-MS/MS analysis; format: ADME, organism-based; settings: in vivo
DU-145 [20] = assay: Induction of apoptosis in human DU-145 cells assessed as late apoptotic cells at 10 uM measured after 48 hrs by annexin V-FITC and PI staining based flow cytometry analysis (reference value: 2.0%); format: functional
[21] = Volume of distribution at steady state in ICR mouse at 5 mg/kg, iv measured upto 96 hrs by HPLC-MS/MS analysis; format: ADME, organism-based; settings: in vivo, read-out: Vdss
DU-145 [22] = assay: Induction of apoptosis in human DU-145 cells measured after 48 hrs by annexin V-FITC and PI staining based flow cytometry analysis; format: functional, cell-based; settings: dose <= 10.0 µM

inhibition [5]: inactive
AUC(0-inf) [6]: 3450 ng·h/mL
MRT inf [7]: 17.3 h
AUC(0-inf) [8]: 17800 ng·h/mL
half-life [10]: 6.28 h
IC50 (HCT-116): 2190 nM
CL/F [12]: 46.8 mL/min/kg
clearance [14]: 24.2 mL/min/kg
Cmax [15]: 910 ng/mL
Tmax [16]: 4.67 h
IC50 (MDA-MB-231 [17]): 3260 nM
half-life [18]: 9 h
Tmax [19]: 3 min
Vd [21]: 19 L/kg
SMILES: CN1CCN(c2cc3c(cc2Nc2nnc(-c4ccc(C(F)(F)F)cc4)s2)nc(-c2ccc(F)cc2)n3C2CC2)CC1
Activity (MDA-MB-231 [1]): 12.1%
Activity (DU-145 [2]): 79.6%
Activity (DU-145 [3]): 2.4%
Activity (MDA-MB-231 [4]): 59.2%
Activity (MDA-MB-231 [9]): Dose-Dependent Effect
Activity (MDA-MB-231 [11]): 5.1%
Activity (DU-145 [13]): 6.9%
Activity (DU-145 [20]): 45.6%
Activity (DU-145 [22]): Dose-Dependent Effect
